Measured values from ChEMBL document CHEMBL1138912, “Dipeptidyl nitriles as human dipeptidyl peptidase I inhibitors” (Bioorg Med Chem Lett, 2006).
Activity calls are given as the source filed them. The rule behind the calls is not given here.

Columns and labels:
Dipeptidyl peptidase 1 [1] = target: T1, Dipeptidyl peptidase 1 (Homo sapiens, UniProt P53634); test: Inhibition of human DPP1
[2] = Metabolic stability in rat liver microsomes after 15 min; format: ADME, Microsome; conditions: read-out: Stability
Cathepsin B = Cathepsin B (Homo sapiens, UniProt P07858); test: Inhibition of Cathepsin B
Cytochrome P450 2C19 = Cytochrome P450 2C19 (Homo sapiens, UniProt P33261); test: Inhibition of CYP2C19; format: ADME
Chain of Cytochrome P450 2C19 (P33261 whole entry): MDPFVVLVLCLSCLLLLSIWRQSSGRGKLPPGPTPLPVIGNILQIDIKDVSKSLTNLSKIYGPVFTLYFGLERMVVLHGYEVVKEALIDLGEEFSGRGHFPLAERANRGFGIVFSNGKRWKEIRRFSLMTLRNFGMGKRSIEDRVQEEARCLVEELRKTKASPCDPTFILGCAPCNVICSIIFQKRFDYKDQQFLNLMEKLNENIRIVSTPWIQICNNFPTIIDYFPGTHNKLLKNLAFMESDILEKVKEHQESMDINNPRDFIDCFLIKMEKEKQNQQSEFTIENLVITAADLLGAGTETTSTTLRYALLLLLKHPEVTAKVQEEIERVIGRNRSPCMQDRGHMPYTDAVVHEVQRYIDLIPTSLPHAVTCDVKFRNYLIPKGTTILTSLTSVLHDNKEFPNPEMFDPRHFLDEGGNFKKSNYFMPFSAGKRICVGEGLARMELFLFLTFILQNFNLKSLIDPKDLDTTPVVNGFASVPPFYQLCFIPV

Pro-cathepsin H = target: T2, Pro-cathepsin H (Homo sapiens, UniProt P09668); test: Inhibition of Cathepsin H
T2 sequence (P09668 whole entry): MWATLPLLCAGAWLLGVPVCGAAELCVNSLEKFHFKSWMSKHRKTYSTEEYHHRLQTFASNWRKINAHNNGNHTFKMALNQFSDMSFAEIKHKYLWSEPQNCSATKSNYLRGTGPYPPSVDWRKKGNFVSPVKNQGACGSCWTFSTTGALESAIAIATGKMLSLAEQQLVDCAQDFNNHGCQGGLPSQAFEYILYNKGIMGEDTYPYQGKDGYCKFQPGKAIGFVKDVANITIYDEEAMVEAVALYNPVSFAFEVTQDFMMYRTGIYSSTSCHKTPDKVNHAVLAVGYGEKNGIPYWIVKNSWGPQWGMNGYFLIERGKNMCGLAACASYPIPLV

Procathepsin L = Procathepsin L (Homo sapiens, UniProt P07711); test: Inhibition of Cathepsin L
Chain of Procathepsin L (P07711 whole entry): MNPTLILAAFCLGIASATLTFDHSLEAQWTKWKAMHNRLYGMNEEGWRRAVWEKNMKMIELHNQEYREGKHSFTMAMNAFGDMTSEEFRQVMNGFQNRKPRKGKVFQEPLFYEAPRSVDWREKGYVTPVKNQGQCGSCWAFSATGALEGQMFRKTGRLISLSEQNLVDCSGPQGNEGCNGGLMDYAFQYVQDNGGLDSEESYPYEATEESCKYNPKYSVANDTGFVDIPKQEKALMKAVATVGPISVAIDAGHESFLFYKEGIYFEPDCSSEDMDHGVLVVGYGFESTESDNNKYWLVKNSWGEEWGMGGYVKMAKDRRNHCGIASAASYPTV

Cytochrome P450 2C9 = Cytochrome P450 2C9 (Homo sapiens, UniProt P11712); test: Inhibition of CYP2C9; format: ADME
Chain of Cytochrome P450 2C9 (P11712 whole entry): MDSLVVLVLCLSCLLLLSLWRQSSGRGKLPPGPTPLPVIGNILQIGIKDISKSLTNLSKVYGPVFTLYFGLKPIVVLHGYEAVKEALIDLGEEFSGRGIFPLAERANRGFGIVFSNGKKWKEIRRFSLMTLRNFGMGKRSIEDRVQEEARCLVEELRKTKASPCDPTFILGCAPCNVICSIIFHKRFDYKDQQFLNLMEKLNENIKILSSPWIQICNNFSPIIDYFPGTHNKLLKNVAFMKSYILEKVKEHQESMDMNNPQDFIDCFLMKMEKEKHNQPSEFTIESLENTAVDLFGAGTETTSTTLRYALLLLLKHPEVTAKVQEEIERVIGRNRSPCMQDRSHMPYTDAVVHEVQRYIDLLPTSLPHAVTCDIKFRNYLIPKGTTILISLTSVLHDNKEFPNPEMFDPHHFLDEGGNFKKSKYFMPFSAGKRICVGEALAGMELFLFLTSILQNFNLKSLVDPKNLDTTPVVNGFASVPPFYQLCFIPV

Dipeptidyl peptidase 1 [3] = target: T1, Dipeptidyl peptidase 1; test: Residual activity at human DPP1 at 10 uM
Dipeptidyl peptidase 1 [4] = target: T1, Dipeptidyl peptidase 1; test: Inhibition of human DPP1 at 20 uM

T1 sequence (P53634 25-134 limits assumed): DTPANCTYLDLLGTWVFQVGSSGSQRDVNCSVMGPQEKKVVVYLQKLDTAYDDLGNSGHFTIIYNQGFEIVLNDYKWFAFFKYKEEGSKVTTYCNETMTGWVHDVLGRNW
T1 sequence (P53634 231-394 limits assumed): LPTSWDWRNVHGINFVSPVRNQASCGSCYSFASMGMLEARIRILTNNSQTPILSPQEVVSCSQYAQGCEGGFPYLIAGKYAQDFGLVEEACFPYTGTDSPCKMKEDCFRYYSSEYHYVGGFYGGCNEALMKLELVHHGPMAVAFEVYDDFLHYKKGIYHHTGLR
T1 sequence (P53634 395-463 limits assumed): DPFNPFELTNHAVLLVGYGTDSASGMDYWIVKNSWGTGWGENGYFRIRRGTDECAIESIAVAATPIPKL

| IC50 (Dipeptidyl peptidase 1 [1]) [nM] | remaining at 0.25 h [2] [%] | Compound | other results |
| --- | --- | --- | --- |
| 294 |  | N#CC(Cc1ccccc1)NC(=O)[C@@H](N)Cc1ccccc1 (stereo in doubt) |  |
| 418 | 45 | N#CC(Cc1ccccc1)NC(=O)[C@@H](N)Cc1ccccc1 (stereo in doubt; 8) |  |
| 822 | 74 | CC[C@H](N)C(=O)N[C@H](C#N)CCc1ccccc1 |  |
|  |  | CC[C@H](N)C(=O)N[C@H](C#N)Cc1ccc(-c2ccccc2)cc1 | IC50 (Cathepsin B): > 10000 nM; IC50 (Cytochrome P450 2C19): > 20000 nM; IC50 (Pro-cathepsin H): > 10000 nM; IC50 (Procathepsin L): > 10000 nM; IC50 (Cytochrome P450 2C9): > 20000 nM |
| 9640 | 39 | N#C[C@H](Cc1ccccc1)NC(=O)[C@@H]1CCCN1 |  |
| 96 | 70 | CC[C@H](N)C(=O)N[C@H](C#N)Cc1ccc(Cl)cc1 |  |
|  |  | CC[C@H](N)C(=O)N(C)[C@H](C#N)Cc1ccccc1 | Activity (Dipeptidyl peptidase 1 [3]): 94% |
| 4790 |  | N#C[C@H](Cc1ccccc1)NC(=O)CN |  |
|  |  | N#C[C@H](Cc1ccccc1)N1CC[C@H](N)C1=O | inhibition (Dipeptidyl peptidase 1 [4]): inactive |
| 137 |  | CC[C@H](N)C(=O)N[C@H](C#N)C/C=C/c1ccccc1 |  |
| 172 | 80 | CC[C@H](N)C(=O)N[C@H](C#N)Cc1ccccc1 |  |
| 6300 |  | N#CC(Cc1ccccc1)NC(=O)[C@@H](N)Cc1ccccc1 (single isomer, unassigned; isomer B) |  |
